From patent US5053561A, “Method of isolating trans-1,1,4,4-tetraalkyl-2-butene-1,4-diols” (BASF Aktiengesellschaft, priority 1989, dated 1991) come the findings set out here.

The structures appear in SMILES notation.

The data set in a line: Determination of the distribution coefficients between polar and non-polar phases. The data set is classed as physicochemical. The settings on record: for Distribution coefficient k: 25° C.; for phase in which the isomer accumulates: seen from the distribution coefficients of Table 1. From the text:
To achieve separation of the cis- and trans-isomers of the alkenediols I which is as complete, efficient and economical as possible, it is necessary, when selecting the solvents for the polar and non-polar phases, to ensure that the quotient of the distribution coefficients ktrans /kcis of the trans- and cis-isomers between the polar and non-polar phases is as large as possible. The distribution coefficient k of the cis- or trans-isomer is defined as the concentration of isomer in the polar phase divided by the concentration of the same isomer in the non-polar phase in the equilibrium state, as illustrated by the following equations (1) and (2): [formula]
2 g of cis- or trans-alkenediol were dissolved, at 25° C., in a mixture of 40 ml of a polar solvent and 40 ml of a non-polar solvent. The mixture was vigorously shaken in a separating funnel for 10 minutes. Following separation of the phases, the solvents were removed by distillation under reduced pressure. The residues were weighed, and the results were used to calculate the distribution coefficients as defined in equations (1) and (2) above (see Table 1 below).

The mark [1] stands for this setting: polar phase water + 2% methanol, non-polar phase toluene.
Where [2] appears, read: polar phase water + 10% ethanol, non-polar phase toluene.
[3] abbreviates: polar phase water, non-polar phase cyclohexane.
Setting [4] is: polar phase water, non-polar phase methyl cyclohexane.
The mark [5] stands for this setting: polar phase water, non-polar phase methyl isobutylketone.
Setting [6] is: polar phase water, non-polar phase methylene chloride.
Where [7] appears, read: polar phase water, non-polar phase n-hexane.
Where [8] appears, read: polar phase water, non-polar phase toluene.

For `CC(C)(O)/C=C/C(C)(C)O` [trans, trans-2,5-dimethyl-3-hexene-2,5-diol], the “phase in which the isomer accumulates” value is given as “accumulates in the polar phase”. In addition, the Distribution coefficient k under setting [1] came out at 62. Also, the Distribution coefficient k under setting [2] came out at 23. Under setting [3], this compound had a Distribution coefficient k of 30. Besides, under setting [4], the Distribution coefficient k amounted to 52. The compound also came in with a Distribution coefficient k under setting [5] of 3.0. Also, the Distribution coefficient k under setting [6] is 7.3. Besides, the Distribution coefficient k under setting [7] stood at 34. Besides, the Distribution coefficient k under setting [8] is 25.
`CC(C)(O)/C=C\C(C)(C)O` [cis, cis-2,5-dimethyl-3-hexene-2,5-diol]: the “phase in which the isomer accumulates” value is on record as “accumulates in the non-polar phase”. In addition, the Distribution coefficient k under setting [1] was determined as 0.39. For the same compound, the Distribution coefficient k under setting [2] is listed as 0.35. In addition, the Distribution coefficient k under setting [3] was 0.56. For the same compound, the Distribution coefficient k under setting [4] was 0.61. The compound also gave a Distribution coefficient k under setting [5] of 0.09. Besides, under setting [6], the Distribution coefficient k amounted to 0.17. Under setting [7], this compound had a Distribution coefficient k of 0.76. Under setting [8], the Distribution coefficient k amounted to 0.38.
